Measured values reported in US4762789A, “Serodiagnostic reagent for entamoeba histolytica” (priority 1986, dated 1988).
Where two headings read alike, the source gives them in different places. Non-standard residues stand in square brackets, D forms with d. Residues, ends and D or L forms follow the SMILES beside them. *: point of attachment. Sta = CC(C)C[C@H](N)[C@@H](O)CC(=O)O; Isovaleryl = CC(C)CC(=O)*

Legend:
[1] = test system: neutral thiol proteinase; experiment: Effect of DTT on enzyme activity in assays; assay type: biochemical, Entamoeba histolytica; conditions: 2 mM DTT
Protocol: 2 mM DTT was maintained throughout as it enhanced activity 2-4-fold in assays and prolonged stability of the enzyme during storage. Even so, as much as 25% of the activity was lost per day in storage at -20° C.
All assays were performed in 100 mM Tris/HCl, 2 mM DTT, pH 7.4 unless otherwise noted.

[2] = test system: culture supernatant proteinase activity (Entamoeba histolytica trophozoites); experiment: Inhibition of culture supernatant proteolytic activity, Z-Arg-Arg-AMC assay; assay type: biochemical
Protocol: (§1) "Log-phase" trophozoites (72 hours after passage) were washed to remove serum, and incubated in PBS with penicillin/streptomycin for 3 hours at 37° C. Amebae maintained greater than 90% viability as judged by Trypan blue exclusion and the absence of cytosolic alcohol dehydrogenase activity (Vallee 1955) in the PBS after incubation. Amebae were centrifuged, and the resulting supernatant passed through a 0.45 micron filter. This was designated as crude culture supernatant (CS).
The Z-Arg-Arg-AMC assay is based on the fluorescence of the cleaved AMC group at 460 nm when excited at 380 nm (Castillo, et al, 1979). Enzyme samples (5-25 microliters) were added to a 4 micromolar solution of Z-Arg-Arg-AMC in buffer to a total volume of 2 ml. The rate of substrate hydrolysis at room temperature was determined from the rate of increase of fluorescence, monitored on a continuously recording spectrofluorometer (Aminco SPF-500; American Instrument Co., Silver Spring, MD). The scale was calibrated with a stock solution of 1.3 micromolar AMC (Sigma).
(§2) Inhibitors were preincubated with the enzyme at the indicated concentrations (See Table 1) for 20 minutes at ambient temperature; substrate was then added and proteolytic activity assayed against Z-Arg-Arg-AMC. All inhibitors were obtained from Sigma except pepstatin A (Transformation Research, Inc., Farminham, MA) and bovine serum (Biofluids). TLCK was prepared as a stock solution in dimethyl sulfoxide (DMSO). Phenlylmethylsulfonyl fluoride (PMSF), pepstatin A, and 1,10-phenanthroline stock solutions were made up in ethanol. An equal volume of DMSO or ethanol alone was tested with enzynme and inhibition was calculated relative to the appropriate solvent control.

[3] = test system: Mono P-purified enzyme (neutral thiol proteinase); experiment: Inhibition of MonoP purified enzyme, Azocoll assay; assay type: biochemical, Entamoeba histolytica; conditions: for Activity as % of control (without inhibitor), Mono P-purified Enzyme: Azocoll assay; for Effect of inhibitor on proteolytic activity of purified enzyme: at the concentrations tested (Table I)
Protocol: Fractions of peak activity from the anion exchange column were pooled and dialyzed overnight against buffer (25 mM bis-Tris, 2 mM DTT, pH 7.1) and applied to a MonoP chromatofocusing column at a flow rate of 0.25 ml/min. Typically, about 3 ml at 0.5 mg/ml were injected. Protein was eluted at a flow rate of 0.5 ml/min over a pH gradient of 7-5 formed with 10% Polybuffer 74, pH 5. (Polybuffer 74 is the Trademark of Pharmacia Inc., 800 Centennial Avenue, Piscataway, NJ 08854 for an amphoteric chromatofocusing buffer.) The gradient was generated with the GP-250 gradient programmer and continuously monitored with a pH meter and flow cell. Fractions were collected and checked for activity as described above.
(§3) Azocollytic activity was measured by incubation of 3 mg Azocoll with 10-100 microliters of enzyme (1 ml reaction volume) for 3-16 hours at 37° C. The tubes were then vortexed, microfuged, and the amount of degradation determined from the absorbance of the supernatant at 540 nm (A540). Control tubes were incubated without enzyme; bovine trypsin (5 micrograms; Sigma) was used to determine the total available substrate.
(§4) All inhibitors were obtained from Sigma except pepstatin A (Transformation Research, Inc., Farminham, MA) and bovine serum (Biofluids). TLCK was prepared as a stock solution in dimethyl sulfoxide (DMSO). Phenlylmethylsulfonyl fluoride (PMSF), pepstatin A, and 1,10-phenanthroline stock solutions were made up in ethanol. An equal volume of DMSO or ethanol alone was tested with enzynme and inhibition was calculated relative to the appropriate solvent control.

[4] = test system: lysate and culture supernatant proteolytic activity; assay type: biochemical, Entamoeba histolytica
Protocol: as §1
For extracts, trophozoites were resuspended in PBS with penicillin/streptomycin and lysed in a nitrogen cavitation bomb (Kontes Glass Co.; Vineland, N.J.) after equilibration at 30 atm (3×10^6N/m^2) for 1 hour at 40° C. After centrifugation, the supernatant of this preparation was passed through a 0.45 micron filter and designated as soluble "lysate".
as §2

[5] = test system: culture supernatant proteinase activity (Entamoeba histolytica trophozoites); experiment: Inhibition of culture supernatant proteolytic activity, Azocoll assay; assay type: biochemical; conditions: inhibitor 2 mM
Protocol: as §1, §3, §4

[6] = test system: Plasminogen; experiment: Plasminogen activator assay (125I-fibrin plates); assay type: biochemical; conditions: 3 hours; 100 microliters culture supernatant or lysate; urokinase 10 ploug units; less plasminogen-free control
Protocol: Plasminogen activator activity was determined by the method of Unkeless, et al. (1973) as modified by Aggeler, et al. (1981). Briefly, 24-well plates were coated with [^125 I]-labeled fibrinogen, and incubated with calf serum for two hours at 37° C. to convert fibrinogen to fibrin. Plasminogen (280 ng; final concentration, 6 nM) was added in 50 mM Tris/HCl (pH 7.8) with 100 microliters of culture supernatant or amebic lysate or 50 microliters of MonoP-purified enzyme, to a final volume of 0.5 ml. Controls were incubated without plasminogen added. Aliquots of supernatant (50 microliters) from quadruplicate wells were counted in a gamma counter (Auto-Gamma 500; Packard Instrument Corp.; Downer's Grove, IL). Total available fibrin was determined by trypsin digest. Urokinase (10 ploug units, Calbiochem; La Jolla, CA) was assayed for comparison. Results were expressed as the percentage of total available fibrin degraded less the percentage degraded by the corresponding plasminogen-free control.

[7] = test system: type I collagen; experiment: Degradation of type I collagen, SDS-PAGE; assay type: biochemical, bovine; conditions: 3.5 hours at 37° C.
Protocol: 40 microgram aliquots of fibronectin (Bethesda Research Laboratories (BRL); Bethesda, MD), laminin (BRL), or type 1 collagen ("Vitrogen 100"), (Vitrogen 100 is the Trademark of Collagen Corp., Palo Alto, CA for a sterile solution of purified bovine dermal type I collagen), diluted to 1 mg/ml in buffer with 150 mM NaCl, were mixed with 40 microliters of MonoP purified enzyme or 10-20 microliters of culture supernatant. Volumes were brought to 80 microliters with 100 mM Tris, pH 7.2, and DTT was added to a final concentration of 2 mM. Samples were incubated for 3.5 hours (fibronectin and collagen) or 20 hours (laminin) at 37° C. along with matched amounts of substrate or enzyme alone as controls. Collagen was also incubated with 0.5 micrograms of TPCK trypsin (trypsin with tosyl-phenylalanine-chloromethyl-ketone to inhibit any contaminating chymotrypsin, (Worthington Biochemical Corp.; Freehold, NJ) to assay for non-specific cleavage.
Reactions were terminated with 2x sample buffer, and analyzed by SDS-PAGE (laminin with 5% and 10% gels; fibronectin with 7% gels; collagen with 10% gels) for evidence of degradation; 80 microliters was loaded into each lane.

[8] = at the concentrations tested (Table I)

O[C@H](CS)[C@H](O)CS (racemic) [DTT, DL-dithiothreitol] was tested, and the “enhancement of enzyme activity in assays” value [1] was 2-4 -fold.

With c1cnc2c(c1)ccc1cccnc12 [1,10-phenanthroline] the “Activity as % of control (without inhibitor), Culture Supernatant” value ([2]; inhibitor 2 mM, 20 min) was 100 % of control, the “Activity as % of control (without inhibitor), Mono P-purified Enzyme” value ([3]; inhibitor 2 mM) was 100 % of control and the “Effect of inhibitor on proteolytic activity of lysate and culture supernatant” value [4, 8] was “not affected”.

CCN1C(=O)C=CC1=O [N--ethylmaleimide (NEM), N-ethylmaleimide] was tested, and the “Activity as % of control (without inhibitor), Culture Supernatant” value ([2]; inhibitor 5 mM, 20 min preincubation) was 5 % of control, the “Effect of inhibitor on proteolytic activity of purified enzyme” value (“Effect of inhibitor … of purified enzyme” below) [3] was “completely inhibited” and the “Activity as % of control (without inhibitor), Mono P-purified Enzyme” value ([3]; inhibitor 5 mM) was 0 % of control. For the same molecule, the “Effect of inhibitor on proteolytic activity of lysate and culture supernatant” value [4, 8] was “completely inhibited”.

For O=C(O)CN(CCN(CC(=O)O)CC(=O)O)CC(=O)O [ethylenediaminetetracetic acid (EDTA), ethylenediaminetetracetic acid], the “Activity as % of control (without inhibitor), Culture Supernatant” value ([2]; inhibitor 10 mM, 20 min) was 100 % of control, the “Activity as % of control (without inhibitor), Mono P-purified Enzyme” value ([3]; inhibitor 10 mM) was 100 % of control and the “Effect of inhibitor on proteolytic activity of lysate and culture supernatant” value [4] was “not affected”.

With O=C(O)CI [iodoacetate] the “Activity as % of control (without inhibitor), Culture Supernatant” value ([2]; inhibitor 3 mM, 20 min) was 0 % of control, the “Effect of inhibitor … of purified enzyme” value [3] was “completely inhibited” and the “Activity as % of control (without inhibitor), Mono P-purified Enzyme” value ([3]; inhibitor 3 mM) was 0 % of control. The “Effect of inhibitor on proteolytic activity of lysate and culture supernatant” value [4] was “completely inhibited”.

With CC(=O)N[C@@H](CC(C)C)C(=O)N[C@@H](CC(C)C)C(=O)N[C@H](C=O)CCCNC(=N)N [leupeptin] the “Activity as % of control (without inhibitor), Culture Supernatant” value ([2]; inhibitor 10 microM, 20 min) was 68 % of control, the “Effect of inhibitor … of purified enzyme” value [3] was “completely inhibited” and the “Activity as % of control (without inhibitor), Mono P-purified Enzyme” value ([3]; inhibitor 10 microM) was 16 % of control. For the same molecule, the “Activity as % of control (without inhibitor), Mono P-purified Enzyme” value ([3]; inhibitor 50 microM) was 0 % of control.

For CC(C)CC(=O)N[C@H](C(=O)N[C@H](C(=O)N[C@@H](CC(C)C)[C@@H](O)CC(=O)N[C@@H](C)C(=O)N[C@@H](CC(C)C)[C@@H](O)CC(=O)O)C(C)C)C(C)C [pepstatin A] (Isovaleryl-VV[Sta]A[Sta]-OH), the “Activity as % of control (without inhibitor), Culture Supernatant” value ([2]; inhibitor 100 microgram/ml, 20 min) was 100 % of control, the “Activity as % of control (without inhibitor), Mono P-purified Enzyme” value ([3]; inhibitor 100 microgram/ml) was 100 % of control and the “Effect of inhibitor on proteolytic activity of lysate and culture supernatant” value [4, 8] was “not affected”.

For O=S(=O)(F)Cc1ccccc1 [phenylmethylsulfonyl fluoride (PMSF), phenylmethylsulfonyl fluoride], the “Activity as % of control (without inhibitor), Culture Supernatant” value [5] was 100 % of control, the “Activity as % of control (without inhibitor), Mono P-purified Enzyme” value ([3]; inhibitor 2 mM) was 100 % of control and the “Effect of inhibitor on proteolytic activity of lysate and culture supernatant” value [4, 8] was “not affected”.

With Cc1ccc(S(=O)(=O)N[C@@H](CCCCN)C(=O)CCl)cc1 [tosyl-lysyl-chloromethyl ketone (TLCK), tosyl-lysyl-chloromethyl ketone] the “Activity as % of control (without inhibitor), Culture Supernatant” value ([2]; inhibitor 0.1 mM, 20 min) was 0 % of control, the “Effect of inhibitor … of purified enzyme” value [3] was “completely inhibited” and the “Activity as % of control (without inhibitor), Mono P-purified Enzyme” value ([3]; inhibitor 0.1 mM) was 0 % of control. The “Effect of inhibitor on proteolytic activity of lysate and culture supernatant” value [4, 8] was “completely inhibited”.

In the case of “alpha1 -proteinase inhibitor: protein proteinase inhibitor obtained from Sigma”, the “Effect of inhibitor … of purified enzyme” value [3] is reported as “completely inhibited”.

urokinase was tested, and the “available fibrin degraded through plasminogen activation” value [6] was 38%.

B1: trypsin: TPCK trypsin (Worthington) used to assay non-specific cleavage of collagen (protein, UniProt P00760 24-246, looked up)
Serine protease 1: IVGGYTCGANTVPYQVSLNSGYHFCGGSLINSQWVVSAAHCYKSGIQVRLGEDNINVVEGNEQFISASKSIVHPSYNSNTLNNDIMLIKLKSAASLNSRVASISLPTSCASAGTQCLISGWGNTKSSGTSYPDVLKCLKAPILSDSSCKSAYPGQITSNMFCAGYLEGGKDSCQGDSGGPVVCSGKLQGIVSWGSGCAQKNKPGVYTKVCNYVSWIKQTIASN
modifications: TPCK-treated
notes: TPCK trypsin (Worthington) used to assay non-specific cleavage of collagen
B1 was tested, and the “degradation of type I collagen” value [7] was “lack of non-specific proteolysis”.
